Laboratory results as given in ChEMBL document CHEMBL1145498, “A systematic interaction map of validated kinase inhibitors with Ser/Thr kinases” (Proc Natl Acad Sci U S A, 2007).

What follows are molecules tested against Calcium/calmodulin-dependent protein kinase type 1G (Homo sapiens) (UniProt Q96NX5).

Compound | ΔTm [°C]
CCOc1cc2ncnc(Nc3cccc(Br)c3)c2cc1OCC | 0.4
CC(C)(C)n1nc(-c2ccc(Cl)cc2)c2c(N)ncnc21 | 0
CSc1nc(-c2ccc(F)cc2)c(-c2ccnc(NC(C)c3ccccc3)c2)[nH]1 (racemic) | 1.9
Cc1nc2sccn2c(=O)c1CCN1CCC(=C(c2ccccc2)c2ccc(F)cc2)CC1 | 0.4

These molecules were tested against Calcium/calmodulin-dependent protein kinase type II subunit alpha (Homo sapiens) (UniProt Q9UQM7).

Compound | ΔTm [°C]
CCOc1cc2ncnc(Nc3cccc(Br)c3)c2cc1OCC | 0.7
CC(C)(C)n1nc(-c2ccc(Cl)cc2)c2c(N)ncnc21 | 0.5
CSc1nc(-c2ccc(F)cc2)c(-c2ccnc(NC(C)c3ccccc3)c2)[nH]1 (racemic) | 0.6
Cc1nc2sccn2c(=O)c1CCN1CCC(=C(c2ccccc2)c2ccc(F)cc2)CC1 | 1.3

These molecules were tested against Calcium/calmodulin-dependent protein kinase type II subunit beta (Homo sapiens) (UniProt Q13554).
Chain of Calcium/calmodulin-dependent protein kinase type II subunit beta (Homo sapiens) (Q13554 whole entry): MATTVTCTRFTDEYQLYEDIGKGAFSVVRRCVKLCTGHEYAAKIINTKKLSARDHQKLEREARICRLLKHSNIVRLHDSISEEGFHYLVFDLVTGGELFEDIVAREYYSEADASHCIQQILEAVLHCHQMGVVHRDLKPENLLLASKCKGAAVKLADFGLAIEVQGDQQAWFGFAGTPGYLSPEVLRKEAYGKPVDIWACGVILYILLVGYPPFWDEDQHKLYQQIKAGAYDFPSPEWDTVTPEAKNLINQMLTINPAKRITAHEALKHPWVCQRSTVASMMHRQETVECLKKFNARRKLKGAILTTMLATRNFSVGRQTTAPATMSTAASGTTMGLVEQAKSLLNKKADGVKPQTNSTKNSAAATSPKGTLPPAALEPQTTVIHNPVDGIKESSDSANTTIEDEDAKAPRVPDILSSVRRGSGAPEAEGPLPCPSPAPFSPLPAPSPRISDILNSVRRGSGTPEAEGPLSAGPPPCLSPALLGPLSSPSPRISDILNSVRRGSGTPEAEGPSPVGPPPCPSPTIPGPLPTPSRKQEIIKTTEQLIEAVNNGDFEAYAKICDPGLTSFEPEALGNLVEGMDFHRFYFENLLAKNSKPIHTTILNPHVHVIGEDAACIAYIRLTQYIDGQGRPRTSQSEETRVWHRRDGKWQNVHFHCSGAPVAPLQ

Compound | ΔTm [°C]
CCOc1cc2ncnc(Nc3cccc(Br)c3)c2cc1OCC | 0.8
CC(C)(C)n1nc(-c2ccc(Cl)cc2)c2c(N)ncnc21 | 0.2
CSc1nc(-c2ccc(F)cc2)c(-c2ccnc(NC(C)c3ccccc3)c2)[nH]1 (racemic) | 0
Cc1nc2sccn2c(=O)c1CCN1CCC(=C(c2ccccc2)c2ccc(F)cc2)CC1 | 0.9

These molecules were tested against Calcium/calmodulin-dependent protein kinase type II subunit delta (Homo sapiens) (UniProt Q13557).

Compound | ΔTm [°C]
CCOc1cc2ncnc(Nc3cccc(Br)c3)c2cc1OCC | 0.6
CC(C)(C)n1nc(-c2ccc(Cl)cc2)c2c(N)ncnc21 | -0.1
CSc1nc(-c2ccc(F)cc2)c(-c2ccnc(NC(C)c3ccccc3)c2)[nH]1 (racemic) | 0.9
Cc1nc2sccn2c(=O)c1CCN1CCC(=C(c2ccccc2)c2ccc(F)cc2)CC1 | -0.4

Each molecule was assayed against Calcium/calmodulin-dependent protein kinase type II subunit gamma (Homo sapiens) (UniProt Q13555).

Compound | ΔTm [°C]
CCOc1cc2ncnc(Nc3cccc(Br)c3)c2cc1OCC | 0.5
CC(C)(C)n1nc(-c2ccc(Cl)cc2)c2c(N)ncnc21 | 0.4
CSc1nc(-c2ccc(F)cc2)c(-c2ccnc(NC(C)c3ccccc3)c2)[nH]1 (racemic) | -0.3
Cc1nc2sccn2c(=O)c1CCN1CCC(=C(c2ccccc2)c2ccc(F)cc2)CC1 | 1.1

Each molecule was assayed against Dual specificity protein kinase CLK2 (Homo sapiens) (UniProt P49760).

Compound | ΔTm [°C]
CCOc1cc2ncnc(Nc3cccc(Br)c3)c2cc1OCC | 1
CC(C)(C)n1nc(-c2ccc(Cl)cc2)c2c(N)ncnc21 | 1.4
CSc1nc(-c2ccc(F)cc2)c(-c2ccnc(NC(C)c3ccccc3)c2)[nH]1 (racemic) | 0.1
Cc1nc2sccn2c(=O)c1CCN1CCC(=C(c2ccccc2)c2ccc(F)cc2)CC1 | 2.8

These molecules were tested against Dual specificity protein kinase CLK3 (Homo sapiens) (UniProt P49761).

Compound | ΔTm [°C]
CCOc1cc2ncnc(Nc3cccc(Br)c3)c2cc1OCC | 0.3
CC(C)(C)n1nc(-c2ccc(Cl)cc2)c2c(N)ncnc21 | 0.7
CSc1nc(-c2ccc(F)cc2)c(-c2ccnc(NC(C)c3ccccc3)c2)[nH]1 (racemic) | -0.2
Cc1nc2sccn2c(=O)c1CCN1CCC(=C(c2ccccc2)c2ccc(F)cc2)CC1 | 3

What follows are molecules tested against Casein kinase I isoform gamma-1 (Homo sapiens) (UniProt Q9HCP0).
Chain of Casein kinase I isoform gamma-1 (Homo sapiens) (Q9HCP0 whole entry, looked up, canonical isoform): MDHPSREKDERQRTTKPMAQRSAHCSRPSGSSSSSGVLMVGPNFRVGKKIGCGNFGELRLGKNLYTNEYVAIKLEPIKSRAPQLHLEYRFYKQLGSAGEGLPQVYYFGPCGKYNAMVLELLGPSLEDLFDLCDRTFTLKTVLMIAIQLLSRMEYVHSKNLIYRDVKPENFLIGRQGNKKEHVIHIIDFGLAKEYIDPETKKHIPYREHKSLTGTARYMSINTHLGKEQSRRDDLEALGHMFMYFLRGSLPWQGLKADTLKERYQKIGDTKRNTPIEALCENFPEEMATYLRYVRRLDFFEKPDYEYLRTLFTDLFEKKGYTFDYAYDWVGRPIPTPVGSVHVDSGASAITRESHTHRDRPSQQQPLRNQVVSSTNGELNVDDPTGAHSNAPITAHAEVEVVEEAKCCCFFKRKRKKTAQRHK

Compound | ΔTm [°C]
CCOc1cc2ncnc(Nc3cccc(Br)c3)c2cc1OCC | 1.2
CC(C)(C)n1nc(-c2ccc(Cl)cc2)c2c(N)ncnc21 | 1
CSc1nc(-c2ccc(F)cc2)c(-c2ccnc(NC(C)c3ccccc3)c2)[nH]1 (racemic) | 3.6
Cc1nc2sccn2c(=O)c1CCN1CCC(=C(c2ccccc2)c2ccc(F)cc2)CC1 | -0.2

The molecules below were run against Death-associated protein kinase 3 (Homo sapiens) (UniProt O43293).
Chain of Death-associated protein kinase 3 (Homo sapiens) (O43293 whole entry, looked up): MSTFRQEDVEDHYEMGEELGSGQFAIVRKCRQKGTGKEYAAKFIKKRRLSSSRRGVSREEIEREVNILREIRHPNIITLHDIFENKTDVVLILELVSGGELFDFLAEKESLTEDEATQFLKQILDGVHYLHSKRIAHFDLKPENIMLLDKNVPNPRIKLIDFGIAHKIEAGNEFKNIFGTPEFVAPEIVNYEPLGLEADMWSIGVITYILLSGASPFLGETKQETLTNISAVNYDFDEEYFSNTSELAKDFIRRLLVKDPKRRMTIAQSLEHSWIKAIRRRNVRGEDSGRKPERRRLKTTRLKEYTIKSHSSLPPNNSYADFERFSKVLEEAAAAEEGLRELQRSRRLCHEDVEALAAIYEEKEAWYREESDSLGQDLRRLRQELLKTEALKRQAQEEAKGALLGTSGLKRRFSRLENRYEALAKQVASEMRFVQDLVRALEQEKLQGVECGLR

Compound | ΔTm [°C]
CCOc1cc2ncnc(Nc3cccc(Br)c3)c2cc1OCC | 2.7
CC(C)(C)n1nc(-c2ccc(Cl)cc2)c2c(N)ncnc21 | -1.1
CSc1nc(-c2ccc(F)cc2)c(-c2ccnc(NC(C)c3ccccc3)c2)[nH]1 (racemic) | 2.4
Cc1nc2sccn2c(=O)c1CCN1CCC(=C(c2ccccc2)c2ccc(F)cc2)CC1 | 4.2

The molecules below were run against T1, Myotonin-protein kinase (Homo sapiens) (UniProt Q09013).
T1 sequence (whole entry): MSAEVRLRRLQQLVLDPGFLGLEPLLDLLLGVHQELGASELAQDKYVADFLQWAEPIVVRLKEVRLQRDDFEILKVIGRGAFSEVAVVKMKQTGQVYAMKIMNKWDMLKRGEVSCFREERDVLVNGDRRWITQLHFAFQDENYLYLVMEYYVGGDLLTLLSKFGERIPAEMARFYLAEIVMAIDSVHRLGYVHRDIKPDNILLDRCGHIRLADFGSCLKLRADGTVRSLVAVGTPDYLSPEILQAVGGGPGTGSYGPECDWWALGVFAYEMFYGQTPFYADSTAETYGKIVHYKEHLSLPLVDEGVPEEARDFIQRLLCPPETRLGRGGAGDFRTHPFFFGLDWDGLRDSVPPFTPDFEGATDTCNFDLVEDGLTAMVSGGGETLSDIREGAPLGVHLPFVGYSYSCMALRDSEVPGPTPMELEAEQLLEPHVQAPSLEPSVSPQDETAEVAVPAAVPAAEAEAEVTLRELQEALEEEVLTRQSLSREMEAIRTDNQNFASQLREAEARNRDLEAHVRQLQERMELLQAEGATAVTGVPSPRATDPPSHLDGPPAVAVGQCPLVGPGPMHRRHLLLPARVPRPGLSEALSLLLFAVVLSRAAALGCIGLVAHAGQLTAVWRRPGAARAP

Compound | ΔTm [°C]
CCOc1cc2ncnc(Nc3cccc(Br)c3)c2cc1OCC | 0.5
CC(C)(C)n1nc(-c2ccc(Cl)cc2)c2c(N)ncnc21 | 0.6
CSc1nc(-c2ccc(F)cc2)c(-c2ccnc(NC(C)c3ccccc3)c2)[nH]1 (racemic) | 1.3
Cc1nc2sccn2c(=O)c1CCN1CCC(=C(c2ccccc2)c2ccc(F)cc2)CC1 | 0.1

The molecules below were run against Dual specificity mitogen-activated protein kinase kinase 2 (Homo sapiens, UniProt P36507).
Chain of Dual specificity mitogen-activated protein kinase kinase 2 (P36507 whole entry): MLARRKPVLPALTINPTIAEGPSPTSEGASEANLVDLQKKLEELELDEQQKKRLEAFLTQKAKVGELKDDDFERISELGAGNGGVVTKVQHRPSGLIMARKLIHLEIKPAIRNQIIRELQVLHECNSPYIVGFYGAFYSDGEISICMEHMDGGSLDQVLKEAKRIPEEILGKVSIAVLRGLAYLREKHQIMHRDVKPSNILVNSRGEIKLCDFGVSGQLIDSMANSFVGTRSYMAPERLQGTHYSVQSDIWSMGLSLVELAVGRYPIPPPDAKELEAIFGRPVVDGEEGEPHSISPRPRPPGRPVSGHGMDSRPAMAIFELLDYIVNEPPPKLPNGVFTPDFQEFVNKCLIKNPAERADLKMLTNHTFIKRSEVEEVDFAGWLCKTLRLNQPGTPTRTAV

Compound | ΔTm [°C]
CCOc1cc2ncnc(Nc3cccc(Br)c3)c2cc1OCC | 0.8
CC(C)(C)n1nc(-c2ccc(Cl)cc2)c2c(N)ncnc21 | 3.3
CSc1nc(-c2ccc(F)cc2)c(-c2ccnc(NC(C)c3ccccc3)c2)[nH]1 (racemic) | 0.1
Cc1nc2sccn2c(=O)c1CCN1CCC(=C(c2ccccc2)c2ccc(F)cc2)CC1 | 1.8

What follows are molecules tested against T2, Dual specificity mitogen-activated protein kinase kinase 6 (Homo sapiens) (UniProt P52564).
T2 sequence (whole entry): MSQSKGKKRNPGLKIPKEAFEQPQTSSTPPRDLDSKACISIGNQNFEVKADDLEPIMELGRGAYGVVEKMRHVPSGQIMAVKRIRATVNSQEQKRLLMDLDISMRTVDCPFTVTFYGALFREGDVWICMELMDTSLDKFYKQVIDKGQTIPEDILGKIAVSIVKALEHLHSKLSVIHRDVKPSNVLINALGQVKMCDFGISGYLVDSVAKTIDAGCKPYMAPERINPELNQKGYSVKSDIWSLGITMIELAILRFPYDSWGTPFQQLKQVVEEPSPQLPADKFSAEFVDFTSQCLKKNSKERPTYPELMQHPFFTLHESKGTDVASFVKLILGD

Compound | ΔTm [°C]
CCOc1cc2ncnc(Nc3cccc(Br)c3)c2cc1OCC | 0.3
CC(C)(C)n1nc(-c2ccc(Cl)cc2)c2c(N)ncnc21 | 2.1
CSc1nc(-c2ccc(F)cc2)c(-c2ccnc(NC(C)c3ccccc3)c2)[nH]1 (racemic) | 0.5
Cc1nc2sccn2c(=O)c1CCN1CCC(=C(c2ccccc2)c2ccc(F)cc2)CC1 | 0.5

What follows are molecules tested against Mitogen-activated protein kinase 3 (Homo sapiens, UniProt P27361).
Chain of Mitogen-activated protein kinase 3 (P27361 whole entry): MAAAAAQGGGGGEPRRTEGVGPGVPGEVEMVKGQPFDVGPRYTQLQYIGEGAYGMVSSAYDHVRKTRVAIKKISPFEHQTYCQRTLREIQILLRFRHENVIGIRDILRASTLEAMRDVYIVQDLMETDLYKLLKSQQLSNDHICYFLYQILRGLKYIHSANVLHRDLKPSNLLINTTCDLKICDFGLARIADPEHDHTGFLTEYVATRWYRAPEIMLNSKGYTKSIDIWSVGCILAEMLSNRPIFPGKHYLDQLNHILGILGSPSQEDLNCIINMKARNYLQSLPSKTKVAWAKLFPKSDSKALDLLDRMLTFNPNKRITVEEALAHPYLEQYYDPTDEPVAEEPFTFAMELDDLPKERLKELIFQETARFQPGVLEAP

Compound | ΔTm [°C]
CCOc1cc2ncnc(Nc3cccc(Br)c3)c2cc1OCC | 0.7
CC(C)(C)n1nc(-c2ccc(Cl)cc2)c2c(N)ncnc21 | 0
CSc1nc(-c2ccc(F)cc2)c(-c2ccnc(NC(C)c3ccccc3)c2)[nH]1 (racemic) | 0
Cc1nc2sccn2c(=O)c1CCN1CCC(=C(c2ccccc2)c2ccc(F)cc2)CC1 | 0

The molecules below were run against Mitogen-activated protein kinase 6 (Homo sapiens) (UniProt Q16659).
Chain of Mitogen-activated protein kinase 6 (Homo sapiens) (Q16659 whole entry): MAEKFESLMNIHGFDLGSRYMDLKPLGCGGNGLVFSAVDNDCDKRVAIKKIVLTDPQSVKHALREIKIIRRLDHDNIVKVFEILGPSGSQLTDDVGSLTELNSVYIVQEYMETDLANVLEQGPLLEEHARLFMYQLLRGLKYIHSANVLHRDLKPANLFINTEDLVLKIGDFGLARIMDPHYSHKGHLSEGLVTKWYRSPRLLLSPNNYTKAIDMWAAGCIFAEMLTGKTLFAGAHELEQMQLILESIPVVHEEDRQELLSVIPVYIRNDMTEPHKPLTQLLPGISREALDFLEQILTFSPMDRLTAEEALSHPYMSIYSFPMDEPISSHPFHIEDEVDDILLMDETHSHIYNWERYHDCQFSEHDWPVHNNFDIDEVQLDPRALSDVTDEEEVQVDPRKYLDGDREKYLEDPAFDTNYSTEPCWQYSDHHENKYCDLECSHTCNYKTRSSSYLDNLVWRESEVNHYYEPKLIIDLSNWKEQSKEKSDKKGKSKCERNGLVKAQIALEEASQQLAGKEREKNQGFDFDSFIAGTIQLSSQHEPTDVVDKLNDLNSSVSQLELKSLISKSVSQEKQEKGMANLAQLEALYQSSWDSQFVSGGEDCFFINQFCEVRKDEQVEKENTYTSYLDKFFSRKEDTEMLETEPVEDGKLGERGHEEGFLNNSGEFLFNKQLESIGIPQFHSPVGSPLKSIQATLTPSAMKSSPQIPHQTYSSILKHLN

Compound | ΔTm [°C]
CCOc1cc2ncnc(Nc3cccc(Br)c3)c2cc1OCC | 0.2
CC(C)(C)n1nc(-c2ccc(Cl)cc2)c2c(N)ncnc21 | -0.2
CSc1nc(-c2ccc(F)cc2)c(-c2ccnc(NC(C)c3ccccc3)c2)[nH]1 (racemic) | 0.4
Cc1nc2sccn2c(=O)c1CCN1CCC(=C(c2ccccc2)c2ccc(F)cc2)CC1 | 0.2

Each molecule was assayed against Serine/threonine-protein kinase OSR1 (Homo sapiens) (UniProt O95747).

Compound | ΔTm [°C]
CCOc1cc2ncnc(Nc3cccc(Br)c3)c2cc1OCC | 1
CC(C)(C)n1nc(-c2ccc(Cl)cc2)c2c(N)ncnc21 | 1.2
CSc1nc(-c2ccc(F)cc2)c(-c2ccnc(NC(C)c3ccccc3)c2)[nH]1 (racemic) | 0.3
Cc1nc2sccn2c(=O)c1CCN1CCC(=C(c2ccccc2)c2ccc(F)cc2)CC1 | 1

The molecules below were run against Serine/threonine-protein kinase PLK1 (Homo sapiens) (UniProt P53350).
Chain of Serine/threonine-protein kinase PLK1 (Homo sapiens) (P53350 whole entry): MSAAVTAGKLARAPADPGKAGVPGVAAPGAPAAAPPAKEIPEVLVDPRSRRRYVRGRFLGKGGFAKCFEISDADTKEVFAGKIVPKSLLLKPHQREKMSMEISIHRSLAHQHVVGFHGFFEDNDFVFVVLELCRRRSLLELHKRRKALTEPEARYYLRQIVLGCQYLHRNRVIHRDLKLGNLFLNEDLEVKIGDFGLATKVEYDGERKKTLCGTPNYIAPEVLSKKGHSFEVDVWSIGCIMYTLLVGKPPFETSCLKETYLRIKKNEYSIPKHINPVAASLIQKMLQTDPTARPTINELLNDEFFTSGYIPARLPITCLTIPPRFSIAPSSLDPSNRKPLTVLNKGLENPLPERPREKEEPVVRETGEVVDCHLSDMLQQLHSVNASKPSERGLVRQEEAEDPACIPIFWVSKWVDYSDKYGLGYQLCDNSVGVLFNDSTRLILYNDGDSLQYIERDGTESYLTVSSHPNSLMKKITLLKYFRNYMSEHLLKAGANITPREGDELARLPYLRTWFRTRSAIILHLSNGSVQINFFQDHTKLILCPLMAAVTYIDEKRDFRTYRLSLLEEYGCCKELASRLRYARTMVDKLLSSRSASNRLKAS

Compound | ΔTm [°C]
CCOc1cc2ncnc(Nc3cccc(Br)c3)c2cc1OCC | 0.2
CC(C)(C)n1nc(-c2ccc(Cl)cc2)c2c(N)ncnc21 | 0.9
CSc1nc(-c2ccc(F)cc2)c(-c2ccnc(NC(C)c3ccccc3)c2)[nH]1 (racemic) | 0.9
Cc1nc2sccn2c(=O)c1CCN1CCC(=C(c2ccccc2)c2ccc(F)cc2)CC1 | 0.6

Each molecule was assayed against TRAF2 and NCK-interacting protein kinase (Homo sapiens) (UniProt Q9UKE5).
Chain of TRAF2 and NCK-interacting protein kinase (Homo sapiens) (Q9UKE5 whole entry, looked up): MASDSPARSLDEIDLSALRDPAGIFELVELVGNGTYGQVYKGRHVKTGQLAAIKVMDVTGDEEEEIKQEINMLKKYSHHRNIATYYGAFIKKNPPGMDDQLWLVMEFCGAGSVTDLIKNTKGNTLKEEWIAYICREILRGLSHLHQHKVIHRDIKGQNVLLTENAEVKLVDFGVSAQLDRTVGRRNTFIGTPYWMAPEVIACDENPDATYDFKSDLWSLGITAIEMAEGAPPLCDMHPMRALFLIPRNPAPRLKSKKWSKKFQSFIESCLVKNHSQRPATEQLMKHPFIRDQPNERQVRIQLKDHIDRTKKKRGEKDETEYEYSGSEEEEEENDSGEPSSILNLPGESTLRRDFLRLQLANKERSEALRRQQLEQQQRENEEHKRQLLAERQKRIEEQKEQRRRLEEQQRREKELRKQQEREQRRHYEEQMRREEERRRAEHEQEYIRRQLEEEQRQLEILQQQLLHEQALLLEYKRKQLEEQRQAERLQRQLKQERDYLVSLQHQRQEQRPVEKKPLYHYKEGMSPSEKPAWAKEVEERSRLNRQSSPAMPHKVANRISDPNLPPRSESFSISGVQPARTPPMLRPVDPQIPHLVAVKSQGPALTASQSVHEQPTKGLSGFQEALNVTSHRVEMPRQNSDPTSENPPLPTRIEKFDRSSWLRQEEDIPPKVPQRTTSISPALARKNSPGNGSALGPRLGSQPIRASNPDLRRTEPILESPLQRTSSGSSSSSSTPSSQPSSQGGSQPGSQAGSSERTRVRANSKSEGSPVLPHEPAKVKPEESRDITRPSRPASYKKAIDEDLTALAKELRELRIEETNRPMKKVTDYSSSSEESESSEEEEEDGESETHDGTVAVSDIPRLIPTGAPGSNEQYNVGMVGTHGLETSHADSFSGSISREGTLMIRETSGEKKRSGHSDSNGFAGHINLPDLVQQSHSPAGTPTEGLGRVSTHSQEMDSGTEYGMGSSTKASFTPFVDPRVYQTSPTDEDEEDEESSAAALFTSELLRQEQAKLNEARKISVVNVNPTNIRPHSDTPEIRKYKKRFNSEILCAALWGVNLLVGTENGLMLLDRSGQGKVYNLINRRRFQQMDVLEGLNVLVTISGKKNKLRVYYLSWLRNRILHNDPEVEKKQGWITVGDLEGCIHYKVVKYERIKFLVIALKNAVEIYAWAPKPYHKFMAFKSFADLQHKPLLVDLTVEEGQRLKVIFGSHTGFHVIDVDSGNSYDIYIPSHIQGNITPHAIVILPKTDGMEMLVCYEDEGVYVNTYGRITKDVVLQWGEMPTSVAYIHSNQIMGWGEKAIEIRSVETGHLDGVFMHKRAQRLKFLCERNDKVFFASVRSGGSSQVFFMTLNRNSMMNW

Compound | ΔTm [°C]
CCOc1cc2ncnc(Nc3cccc(Br)c3)c2cc1OCC | 3.1
CC(C)(C)n1nc(-c2ccc(Cl)cc2)c2c(N)ncnc21 | 1.4
CSc1nc(-c2ccc(F)cc2)c(-c2ccnc(NC(C)c3ccccc3)c2)[nH]1 (racemic) | -1.2
Cc1nc2sccn2c(=O)c1CCN1CCC(=C(c2ccccc2)c2ccc(F)cc2)CC1 | 2.9

Each molecule was assayed against T3, Serine/threonine-protein kinase VRK1 (Homo sapiens) (UniProt Q99986).
T3 sequence (whole entry): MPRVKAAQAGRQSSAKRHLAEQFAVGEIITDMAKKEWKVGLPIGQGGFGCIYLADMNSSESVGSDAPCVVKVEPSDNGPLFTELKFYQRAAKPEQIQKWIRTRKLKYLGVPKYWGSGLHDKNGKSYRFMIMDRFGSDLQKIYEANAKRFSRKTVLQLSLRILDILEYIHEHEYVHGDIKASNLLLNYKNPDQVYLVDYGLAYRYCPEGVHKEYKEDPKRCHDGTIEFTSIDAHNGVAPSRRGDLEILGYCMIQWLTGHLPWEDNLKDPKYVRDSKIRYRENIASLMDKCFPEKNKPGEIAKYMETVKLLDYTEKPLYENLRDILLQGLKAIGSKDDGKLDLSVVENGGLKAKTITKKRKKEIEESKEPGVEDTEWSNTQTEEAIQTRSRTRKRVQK

Compound | ΔTm [°C]
CCOc1cc2ncnc(Nc3cccc(Br)c3)c2cc1OCC | 0
CC(C)(C)n1nc(-c2ccc(Cl)cc2)c2c(N)ncnc21 | 0
CSc1nc(-c2ccc(F)cc2)c(-c2ccnc(NC(C)c3ccccc3)c2)[nH]1 (racemic) | 0.9
Cc1nc2sccn2c(=O)c1CCN1CCC(=C(c2ccccc2)c2ccc(F)cc2)CC1 | 0.3
